Consider 9 compounds from patent US9771369B2, “Compounds and methods for kinase modulation, and indications therefor” (Plexxikon Inc., priority 2014, dated 2017).

SMILES strings stand for the structures. pIC50: −log10 of the molar value.

For one test, the target named is c-kit mutant D816V (Homo sapiens (Human), UniProt P10721, D816V/DEL694-753). Description: c-Kit mutant D816V biochemical assay (AlphaScreen kinase activity). The method, boiled down:
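Recombinant His-tagged c-Kit D816V kinase domain (residues 551-934, insert 694-753 deleted, E. coli-expressed) phosphorylating 30 nM biotin-(E4Y)10 with 10 μM ATP, HEPES pH 7.2, Mg/Mn, 5% DMSO; 30 min, room temperature. Phosphorylation detected by AlphaScreen (streptavidin donor/PY30 acceptor beads); IC50 from 8-point 1:3 series.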
Background: In Alpha technology, singlet oxygen from a donor bead excites a nearby acceptor bead.

In test [1] the test system is BaF3-FL KIT D816V or BaF3-FL KIT V560G/D816V cell line. Nature of the test: Cell-based assays of c-Kit mutant kinase activity (cell proliferation, ATPlite). Conditions: at least one of the c-kit cell assays of Example 7. The method, boiled down:
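BaF3 cells dependent on transfected full-length human KIT D816V or V560G/D816V (pCI-Neo, CMV promoter) were seeded at 1×10^4 cells/well and exposed to 8-point 1:3 dilutions from 10 μM top (0.2% DMSO) for three days at 37° C. ATPlite luminescence gave cell number; IC50 from concentration-response.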
(ATP-based viability assays read luminescence as a measure of living cells.)

c-kit mutant D816V, sequence (P10721 other isoform, or with tags, fused parts or gaps D816V/del 694-753): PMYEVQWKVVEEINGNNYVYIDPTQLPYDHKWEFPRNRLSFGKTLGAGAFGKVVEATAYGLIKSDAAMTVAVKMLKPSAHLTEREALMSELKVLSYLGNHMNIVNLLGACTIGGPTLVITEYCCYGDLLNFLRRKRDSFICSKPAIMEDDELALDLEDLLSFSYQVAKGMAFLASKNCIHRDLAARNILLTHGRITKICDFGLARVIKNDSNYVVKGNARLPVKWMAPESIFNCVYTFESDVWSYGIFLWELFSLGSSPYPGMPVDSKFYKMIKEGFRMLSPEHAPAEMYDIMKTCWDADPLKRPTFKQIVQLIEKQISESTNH

At c-kit mutant D816V, `COc1cc(-c2cc3c(N4CCC(c5nc(C)c(-c6ccc(OC(F)(F)F)cc6)[nH]5)CC4)ncnc3[nH]2)ccn1` [P-3087, 6-(2-methoxy-4-pyridyl)-4-[4-[4-methyl-5-[4-(trifluoromethoxy)phenyl]-1H-imidazol-2-yl]-1-piperidyl]-7H-pyrrolo[2,3-d]pyrimidine] returned an IC50 of 0.0001 to 1 µM. In test [1], the pIC50 was > 5.00.
The matching figures for `COc1cc(-c2cc3c(N4CCC(c5nc(C)c(-c6ccc(C)cc6)[nH]5)CC4)ncnc3[nH]2)ccn1` [P-3088, 6-(2-methoxy-4-pyridyl)-4-[4-[4-methyl-5-(p-tolyl)-1H-imidazol-2-yl]-1-piperidyl]-7H-pyrrolo[2,3-d]pyrimidine]: 0.0001 to 1 µM and > 5.00.
Turning to `COc1ccc(-c2[nH]c(C3(C)CCN(c4ncnc5[nH]c(-c6ccc(C#N)nc6)cc45)CC3)nc2C)cc1C` [P-3250, 5-[4-[4-[5-(4-methoxy-3-methyl-phenyl)-4-methyl-1H-imidazol-2-yl]-4-methyl-1-piperidyl]-7H-pyrrolo[2,3-d]pyrimidin-6-yl]pyridine-2-carbonitrile], the half-inhibitory concentration (IC50) at c-kit mutant D816V was in the range of 0.0001 to 1 µM. Moreover, in test [1], the pIC50 is > 5.00.
The matching figures for `CCOc1ccc(-c2[nH]c(C3(C)CCN(c4ncnc5[nH]c(-c6ccc(C#N)nc6)cc45)CC3)nc2C)cc1` [P-3251, 5-[4-[4-[5-(4-ethoxyphenyl)-4-methyl-1H-imidazol-2-yl]-4-methyl-1-piperidyl]-7H-pyrrolo[2,3-d]pyrimidin-6-yl]pyridine-2-carbonitrile]: 0.0001 to 1 µM and > 5.00.
For `Cc1nc(C2(C)CCN(c3ncnc4[nH]c(-c5ccc(NS(C)(=O)=O)cc5)cc34)CC2)[nH]c1-c1ccc(C(F)F)cc1` [P-3252, N-[4-[4-[4-[5-[4-(difluoromethyl)phenyl]-4-methyl-1H-imidazol-2-yl]-4-methyl-1-piperidyl]-7H-pyrrolo[2,3-d]pyrimidin-6-yl]phenyl]methanesulfonamide], in that order: 0.0001 to 1 µM and > 5.00.
For `Cc1nc(C2(C)CCN(c3ncnc4[nH]c(-c5ccc(C(N)=O)cc5)cc34)CC2)[nH]c1-c1ccc(OC(F)F)cc1` [P-3253, 4-[4-[4-[5-[4-(difluoromethoxy)phenyl]-4-methyl-1H-imidazol-2-yl]-4-methyl-1-piperidyl]-7H-pyrrolo[2,3-d]pyrimidin-6-yl]benzamide], in that order: 0.0001 to 1 µM and > 5.00.
For `Cc1nc(C2(C)CCN(c3ncnc4[nH]c(-c5ccc(NS(C)(=O)=O)cc5)cc34)CC2)[nH]c1-c1ccc(OC(F)F)cc1` [P-3254, N-[4-[4-[4-[5-[4-(difluoromethoxy)phenyl]-4-methyl-1H-imidazol-2-yl]-4-methyl-1-piperidyl]-7H-pyrrolo[2,3-d]pyrimidin-6-yl]phenyl]methanesulfonamide], the concentration for half-maximal inhibition (IC50) against c-kit mutant D816V was in the range of 0.0001 to 1 µM. For the same compound, the pIC50 in test [1] is > 5.00.
For `Cc1nc(C2(C)CCN(c3ncnc4[nH]c(-c5ccc(C#N)nc5)cc34)CC2)[nH]c1-c1cccc(OC(F)F)c1` [P-3255, 5-[4-[4-[5-[3-(difluoromethoxy)phenyl]-4-methyl-1H-imidazol-2-yl]-4-methyl-1-piperidyl]-7H-pyrrolo[2,3-d]pyrimidin-6-yl]pyridine-2-carbonitrile], in that order: 0.0001 to 1 µM and > 5.00.
The matching figures for `COc1cccc(-c2[nH]c(C3(C)CCN(c4ncnc5[nH]c(-c6ccc(C#N)nc6)cc45)CC3)nc2C)c1` [P-3256, 5-[4-[4-[5-(3-methoxyphenyl)-4-methyl-1H-imidazol-2-yl]-4-methyl-1-piperidyl]-7H-pyrrolo[2,3-d]pyrimidin-6-yl]pyridine-2-carbonitrile]: 0.0001 to 1 µM and > 5.00.

In general, IC50 refers to the midpoint of a concentration-inhibition curve. A lower IC50 goes with greater potency. A word on the pIC50: it is −log10 of the IC50, conventionally taken in molar units. Low readings indicate a high IC50, high ones a low IC50.
